Patent publication US20190391160A1 (INSTITUT PASTEUR, published 2019)
“Also recorded” adds a separate entry of the source.

Legend:
[1] = biological target: CFTR (WT-CFTR) Cl− channel (Homo sapiens, UniProt P13569); format: cell-based
[2] = tested on: cAMP-dependent Cl− short-circuit current of mouse colon tissue; conditions: 100 μM bumetanide, basolateral side
Experimental: Mice were 32 to 38 weeks old and weighed 23 to 36 g. Pups were weaned at 21 days and fed solid mouse chow (Teklad 2018S, Harland). All mice were allowed food and water ad libitum until the time of sacrifice by cervical dislocation. Colons were dissected, cut in 4 pieces from rectum to lower intestine. The fragments from colon were introduced immediately into Ussing chambers for subsequent short-circuit experiments.
Transepithelial transport measurements were performed as described previously^33 in the short-circuit mode (6 mice and 17 tissus). […] The excised colon were stripped of external muscle layers and mounted in Ussing chambers (0.018 cm^2 aperture). Hemichambers were connected to a DVC-1000 voltage clamp (World Precision Instruments, Inc., Sarasota, Fla.) via Ag/AgCl electrodes and 3 M KCl agar bridges for recording of short-circuit current. Currents were stored on a computer using analog-to-digital converter (PowerLab) and LabChart software 5.0. Prior to the experiment, prostaglandin generation was blocked with 10 μM indomethacin on the apical and basolateral sides (incubation of tissue for 30 min before the beginning of the experiment). Transepithelial Isc was calculated as μEq cm^−2 tissue surface area. The apical and basolateral solutions contained (in mM): 116 NaCl, 25 NaHCO3, 1.2 CaCl2, 1.2 MgCl2, 2,4 […], 0,4 KH2PO4, 10 glucose and was gassed with 95% O2-5% CO2 (pH 7.4).

CFTR channels (WT-CFTR) = CFTR channels (WT-CFTR) (Homo sapiens, UniProt P13569); format: cell-based; conditions: 100 μM glibenclamide and 10 μM inh172
Sequence of CFTR channels (WT-CFTR) (P13569 whole entry, the tested form may be a part): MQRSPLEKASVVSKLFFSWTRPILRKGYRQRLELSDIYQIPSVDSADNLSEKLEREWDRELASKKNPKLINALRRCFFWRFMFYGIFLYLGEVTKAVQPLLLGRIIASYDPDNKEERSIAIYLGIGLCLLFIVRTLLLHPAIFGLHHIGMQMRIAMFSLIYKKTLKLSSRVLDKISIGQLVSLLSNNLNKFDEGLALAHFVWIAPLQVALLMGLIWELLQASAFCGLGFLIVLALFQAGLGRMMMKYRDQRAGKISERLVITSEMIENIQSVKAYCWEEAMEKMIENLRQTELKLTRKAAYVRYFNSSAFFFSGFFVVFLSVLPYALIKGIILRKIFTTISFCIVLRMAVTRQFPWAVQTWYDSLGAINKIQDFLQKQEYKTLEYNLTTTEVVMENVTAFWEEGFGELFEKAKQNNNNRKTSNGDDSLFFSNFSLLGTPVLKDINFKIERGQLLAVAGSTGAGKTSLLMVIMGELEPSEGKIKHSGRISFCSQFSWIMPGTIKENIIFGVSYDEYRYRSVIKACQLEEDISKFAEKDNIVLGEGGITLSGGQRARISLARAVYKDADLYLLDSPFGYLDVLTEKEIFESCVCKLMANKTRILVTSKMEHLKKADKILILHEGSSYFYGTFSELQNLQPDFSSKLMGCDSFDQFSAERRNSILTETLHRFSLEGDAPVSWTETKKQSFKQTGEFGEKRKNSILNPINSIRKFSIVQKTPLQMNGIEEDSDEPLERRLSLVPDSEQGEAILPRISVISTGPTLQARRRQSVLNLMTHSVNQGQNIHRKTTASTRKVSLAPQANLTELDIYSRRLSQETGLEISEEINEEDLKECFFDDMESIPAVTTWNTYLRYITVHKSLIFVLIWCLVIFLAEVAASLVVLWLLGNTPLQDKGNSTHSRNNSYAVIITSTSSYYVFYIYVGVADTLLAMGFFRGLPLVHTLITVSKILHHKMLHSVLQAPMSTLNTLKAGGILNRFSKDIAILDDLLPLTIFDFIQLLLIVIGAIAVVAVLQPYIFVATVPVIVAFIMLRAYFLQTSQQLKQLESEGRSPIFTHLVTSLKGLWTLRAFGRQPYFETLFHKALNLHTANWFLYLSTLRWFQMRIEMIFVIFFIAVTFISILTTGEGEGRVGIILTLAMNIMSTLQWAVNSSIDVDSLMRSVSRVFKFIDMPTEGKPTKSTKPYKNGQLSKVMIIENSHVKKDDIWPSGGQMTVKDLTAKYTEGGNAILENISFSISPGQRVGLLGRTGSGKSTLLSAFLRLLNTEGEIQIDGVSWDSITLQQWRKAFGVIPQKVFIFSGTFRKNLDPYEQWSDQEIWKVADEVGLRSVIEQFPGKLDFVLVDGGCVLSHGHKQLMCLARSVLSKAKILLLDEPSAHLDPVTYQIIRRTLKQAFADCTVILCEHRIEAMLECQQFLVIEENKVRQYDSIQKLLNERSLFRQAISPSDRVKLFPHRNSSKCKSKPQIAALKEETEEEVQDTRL
Source text: HeLa cells stably transfected with WT-CFTR were kindly provided by Pascale Fanen (INSERM U955, Créteil, France). The intracellular side of the membrane patch was exposed to a solution containing (in mM): 150 N-methyl-D-gluconate chloride (NMDG-Cl), 0.5 MgCl2, 2 EGTA, 10 HEPES, 10 glucose, pH 7.4, adjusted to pH 7.4 with NMDG. The patch pipettes were filled with (in mM): 150 NMDG-Cl, 0.5 MgCl2, 2 EGTA, 10 HEPES, 10 glucose, 1 ATP-Mg adjusted to pH 7.4 with NMDG. CFTR channels were activated by addition of 40 nM PKA+1 mM ATP-Mg at the intracellular side of the patches. The presence of CFTR channels was verified by addition of 100 μM glibenclamide and 10 μM inh172. The effect of CB was tested by perfusion of 1 nM of CB in the intracellular solution in the presence of 40 nM PKA+0.05, 0.5, or 1 mM ATP-Mg. The currents were recorded as previously described^34. […] Currents were recorded with Bio-logic RK 400 patch-clamp amplifiers (Bio-Logic, Claix, France), monitored using PClamp9 software (Axon Instruments, Foster City, Calif., USA) and stored on a computer. […] We calculated channel activity (NPo) as <I>/i, where <I> is the time-averaged current passing through the channels on the patch with the closed current level as reference and i is the unit current amplitude.

ΔF508-CFTR = ΔF508-CFTR (Homo sapiens, UniProt P13569, DEL508-508); format: cell-based; conditions: after corrector and CB; inh172 and glibenclamide as a mixture
Sequence of ΔF508-CFTR (P13569 with tags, fused parts or gaps DEL508-508): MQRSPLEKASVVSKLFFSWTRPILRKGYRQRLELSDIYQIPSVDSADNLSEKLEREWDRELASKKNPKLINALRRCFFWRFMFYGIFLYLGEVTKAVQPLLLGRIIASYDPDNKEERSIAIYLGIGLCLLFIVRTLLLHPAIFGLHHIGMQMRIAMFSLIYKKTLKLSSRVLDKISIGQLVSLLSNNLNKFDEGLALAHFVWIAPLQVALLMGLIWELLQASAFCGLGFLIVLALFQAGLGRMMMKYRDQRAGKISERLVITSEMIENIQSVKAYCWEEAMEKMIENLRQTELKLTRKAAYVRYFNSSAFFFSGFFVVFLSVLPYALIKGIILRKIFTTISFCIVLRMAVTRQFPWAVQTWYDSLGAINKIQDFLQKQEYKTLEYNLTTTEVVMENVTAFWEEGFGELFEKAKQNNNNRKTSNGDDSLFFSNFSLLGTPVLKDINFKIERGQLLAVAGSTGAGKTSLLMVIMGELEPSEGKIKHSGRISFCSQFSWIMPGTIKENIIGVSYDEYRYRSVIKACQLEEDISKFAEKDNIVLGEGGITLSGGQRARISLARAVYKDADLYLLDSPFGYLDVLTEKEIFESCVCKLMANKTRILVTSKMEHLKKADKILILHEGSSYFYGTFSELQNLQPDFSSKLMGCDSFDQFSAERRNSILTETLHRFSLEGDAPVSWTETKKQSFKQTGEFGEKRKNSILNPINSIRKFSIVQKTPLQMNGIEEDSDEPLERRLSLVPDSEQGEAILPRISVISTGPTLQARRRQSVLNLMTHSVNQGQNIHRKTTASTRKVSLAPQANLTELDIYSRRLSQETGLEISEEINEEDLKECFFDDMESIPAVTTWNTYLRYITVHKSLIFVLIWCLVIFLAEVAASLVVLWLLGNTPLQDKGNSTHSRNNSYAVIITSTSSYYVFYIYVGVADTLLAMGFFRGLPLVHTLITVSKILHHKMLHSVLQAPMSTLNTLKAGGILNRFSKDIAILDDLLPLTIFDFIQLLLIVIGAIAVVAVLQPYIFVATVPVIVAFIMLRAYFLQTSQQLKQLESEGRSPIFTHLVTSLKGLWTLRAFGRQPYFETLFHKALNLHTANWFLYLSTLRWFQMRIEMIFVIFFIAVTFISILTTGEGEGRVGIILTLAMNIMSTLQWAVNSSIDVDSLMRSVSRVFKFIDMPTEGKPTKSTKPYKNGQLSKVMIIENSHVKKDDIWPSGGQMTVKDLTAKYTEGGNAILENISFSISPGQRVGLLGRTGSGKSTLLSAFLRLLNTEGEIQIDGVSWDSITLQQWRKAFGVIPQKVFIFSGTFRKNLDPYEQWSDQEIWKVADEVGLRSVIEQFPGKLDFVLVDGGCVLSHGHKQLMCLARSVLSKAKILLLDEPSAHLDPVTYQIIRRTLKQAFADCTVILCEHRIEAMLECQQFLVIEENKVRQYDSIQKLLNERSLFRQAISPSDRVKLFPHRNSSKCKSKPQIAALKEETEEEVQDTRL

ΔF508-NBD1 of CFTR = ΔF508-NBD1 of CFTR (Homo sapiens, UniProt P13569, DEL508-508); format: binding
Sequence of ΔF508-NBD1 of CFTR (P13569 with tags, fused parts or gaps DEL508-508 limits assumed): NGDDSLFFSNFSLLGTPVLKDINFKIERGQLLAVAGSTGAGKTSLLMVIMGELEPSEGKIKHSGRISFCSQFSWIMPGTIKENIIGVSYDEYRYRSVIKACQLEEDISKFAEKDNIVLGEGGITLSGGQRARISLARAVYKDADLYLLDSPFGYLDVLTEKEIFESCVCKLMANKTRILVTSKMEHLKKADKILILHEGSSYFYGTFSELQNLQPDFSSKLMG

[3] = biological target: recombinant, purified human NBD1 (nucleotide binding domain 1) of CFTR, wild type (human, UniProt P13569 389-678)
Sequence of recombinant, purified human NBD1 (nucleotide binding domain 1) of CFTR, wild type (P13569 389-678 limits assumed): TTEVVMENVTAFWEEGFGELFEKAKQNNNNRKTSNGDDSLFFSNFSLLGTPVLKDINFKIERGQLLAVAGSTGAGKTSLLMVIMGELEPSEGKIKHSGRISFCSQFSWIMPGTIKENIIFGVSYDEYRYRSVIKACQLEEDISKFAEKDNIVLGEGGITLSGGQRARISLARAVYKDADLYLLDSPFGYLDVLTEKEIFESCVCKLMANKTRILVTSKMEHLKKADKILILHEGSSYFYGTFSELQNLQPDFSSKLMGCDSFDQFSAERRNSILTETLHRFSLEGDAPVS

[4] = biological target: human ΔF508-NBD1 (NBD1 domain of CFTR with deletion of Phe508) (human, UniProt P13569 389-678)
Sequence of human ΔF508-NBD1 (NBD1 domain of CFTR with deletion of Phe508) (P13569 other isoform, or with tags, fused parts or gaps mutant limits assumed): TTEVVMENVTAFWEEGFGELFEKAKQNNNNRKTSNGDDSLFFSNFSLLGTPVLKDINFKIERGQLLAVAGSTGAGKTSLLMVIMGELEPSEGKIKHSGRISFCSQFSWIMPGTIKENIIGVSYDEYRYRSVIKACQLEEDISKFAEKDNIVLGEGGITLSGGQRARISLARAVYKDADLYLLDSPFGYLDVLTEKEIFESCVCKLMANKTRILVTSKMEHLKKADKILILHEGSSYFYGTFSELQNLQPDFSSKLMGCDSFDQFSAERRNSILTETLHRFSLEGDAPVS

Sequence of CFTR (WT-CFTR) Cl− channel (P13569 whole entry): as the sequence (P13569 whole entry, the tested form may be a part) above

## CCCCC/C=C\C/C=C\C/C=C\C/C=C\CCCC(=O)O [arachidonic acid]
[1]
  effect on IcAMP (CFTR-Cl− current): no effect on IcAMP

## CCCCNc1cc(C(=O)O)cc(S(N)(=O)=O)c1Oc1ccccc1 [bumetanide]
[2]
  inhibition of the CB-induced Isc increase: inhibited

## COc1ccc(Cl)cc1C(=O)NCCc1ccc(S(=O)(=O)NC(=O)NC2CCCCC2)cc1 [glibenclamide]
CFTR channels (WT-CFTR)
  inhibition of the activated channels: inhibited
ΔF508-CFTR
  inhibition of the CB-potentiated current: only slightly

## NAVPFYAFYGCYCGWGGQ
Cl— channel current
  Cl− channel current: increased; also recorded: increases Cl— channel current
ΔF508-NBD1 of CFTR
  binding of peptide to mutated NBD1: has shown interaction; also recorded: interacts with ΔF508-NBD1

## glyH101
ΔF508-CFTR
  inhibition of the CB-potentiated current: inhibited

B1: recombinant human non-pancreatic secreted phospholipase A2 group IIA (enzyme, UniProt P14555 21-144, looked up)
chain: NLVNFHRMIKLTTGKEAALSYGFYGCHCGVGGRGSPKDATDRCCVTHDCCYKRLEKRGCGTKFLSYKFSNSGSRITCAKQDSCRSQLCECDKAAATCFARNKTTYNKKYQYYSNKHCRGSTPRC
[3]
  Kd: 35 nM
  koff: 0.0021 s⁻¹
  kon: 59000 M⁻¹ s⁻¹
[4]
  Kd: 37 nM
  koff: 0.0066 s⁻¹
  kon: 180000 M⁻¹ s⁻¹
